Each molecule was assayed against Induced myeloid leukemia cell differentiation protein Mcl-1 (Homo sapiens, UniProt Q07820) (assay: Inhibition of human recombinant MCL-1 (174 to 236) expressed in Escherichia coli BL21(DE3) using 6FAM-GELEVEFATQLRRFGDKLN as substrate after 15 mins by fluorescence polarization Assay).
Sequence of Induced myeloid leukemia cell differentiation protein Mcl-1 (Q07820 whole entry): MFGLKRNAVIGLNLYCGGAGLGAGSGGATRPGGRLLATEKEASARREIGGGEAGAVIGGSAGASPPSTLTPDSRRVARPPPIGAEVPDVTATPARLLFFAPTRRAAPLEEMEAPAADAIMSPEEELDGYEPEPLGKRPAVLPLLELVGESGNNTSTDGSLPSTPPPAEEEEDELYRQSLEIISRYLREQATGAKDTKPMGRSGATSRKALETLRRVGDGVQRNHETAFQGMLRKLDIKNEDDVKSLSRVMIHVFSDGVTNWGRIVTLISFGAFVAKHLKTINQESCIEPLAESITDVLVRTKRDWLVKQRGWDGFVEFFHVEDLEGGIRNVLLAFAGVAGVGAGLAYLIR
Work on `O=C(O)c1cc(-c2ccccc2COc2cccc3ccccc23)ccc1O` yielded an IC50 of 570 nM. Molecule `Cc1ccc(-c2ccc(C(=O)O)c(NS(=O)(=O)c3cccc(N4CCOCC4)c3)c2)c2ccccc12` has an IC50 of 200 nM. In the case of `Cc1ccc(-c2ccc(C(=O)O)c(NS(=O)(=O)c3ccccc3)c2)cc1`, the IC50 is reported as 4900 nM. `O=C(O)c1cc(-c2ccccc2OCc2ccccc2Cl)ccc1O` gave an IC50 of 780 nM. `O=C(O)c1cc(-c2ccc(OCc3ccccc3)cc2)ccc1O` showed an IC50 of 2200 nM. In the case of `Cc1ccccc1-c1ccc(O)c(C(=O)O)c1`, the IC50 is reported as 22000 nM. With `O=C(O)c1cc(-c2ccccc2)ccc1O` the IC50 was 34000 nM. In the case of `Cc1ccc(-c2ccc(O)c(C(=O)O)c2)cc1`, the IC50 is reported as 73000 nM. With `Cc1ccc(-c2ccc(C(=O)O)c(NS(=O)(=O)c3ccc(N4CCOCC4)cc3)c2)c2ccccc12` the IC50 was 110 nM. In the case of `CCCCOc1ccc(F)c(-c2ccc(O)c(C(=O)O)c2)c1`, the IC50 is reported as 1100 nM. In the case of `Cc1ccc(-c2ccc(C(=O)O)c(NS(=O)(=O)c3ccccc3)c2)c2ccccc12`, the IC50 is reported as 400 nM. `O=C(O)c1ccc(-c2cccc3ccccc23)cc1NS(=O)(=O)c1ccccc1` gave an IC50 of 1000 nM. `O=C(O)c1ccc(-c2cccc3ncccc23)cc1NS(=O)(=O)c1ccccc1` gave an IC50 of 37000 nM. With `CCCc1ccc(-c2ccc(O)c(C(=O)O)c2)cc1` the IC50 was 3300 nM. With `Cc1ccc(-c2ccc(C(=O)O)c(NS(=O)(=O)c3ccc(OCCn4cccn4)cc3)c2)c2ccccc12` the IC50 was 30 nM. In the case of `O=C1CC(c2cccc(C(F)(F)F)c2)=NN1`, the IC50 is reported as 70000 nM. With `Cc1ccc(S(=O)(=O)Nc2ccccc2-c2ccc(O)c(C(=O)O)c2)cc1` the IC50 was over 25000 nM. `Cc1cccc(-c2ccc(C(=O)O)c(NS(=O)(=O)c3ccccc3)c2)c1` showed an IC50 of 1800 nM. Molecule `CS(=O)(=O)Nc1ccccc1-c1ccc(O)c(C(=O)O)c1` has an IC50 of 45000 nM. `CN(C)c1cccc2ccc(O)cc12` showed an IC50 of 280000 nM. With `CC(C)(C)OCc1ccccc1-c1ccc(O)c(C(=O)O)c1` the IC50 was over 25000 nM. With `Nc1cccc(-c2ccc(O)c(C(=O)O)c2)c1` the IC50 was 190000 nM. Molecule `CCC(C)c1ccc(S(=O)(=O)Nc2cc(-c3ccc(C)c4ccccc34)ccc2C(=O)O)cc1` (stereo not given) has an IC50 of 1200 nM. `Cc1ccc(-c2ccc(C(=O)O)c(NS(=O)(=O)c3ccc(OCCCN4CCOCC4)cc3)c2)c2ccccc12` was tested, and the IC50 was 60 nM. `O=C(O)c1cc(-c2cccc3ccccc23)ccc1O` was tested, and the IC50 was 31000 nM. `O=C(O)c1cc(-c2ccc3ncccc3c2)ccc1O` was tested, and the IC50 was 22000 nM. Molecule `O=C(O)c1cc(-c2ccccc2OCc2ccccc2)ccc1O` has an IC50 of 7200 nM. Molecule `Oc1nc2c(ccc3ccccc32)o1` has an IC50 of 130000 nM. Molecule `Cc1ccc(-c2ccc(C(=O)O)c(NS(=O)(=O)c3ccc(Oc4ccccc4)cc3)c2)c2ccccc12` has an IC50 of 500 nM. Molecule `Cc1ccc(-c2ccc(C(=O)O)c(NS(=O)(=O)c3ccc(C(=O)N(C)C)cc3)c2)c2ccccc12` has an IC50 of 80 nM. `CCCCCc1ccc(S(=O)(=O)Nc2cc(-c3ccc(C)c4ccccc34)ccc2C(=O)O)cc1` showed an IC50 of 300 nM. Work on `C=Cc1ccc(C(=O)OCC)c(NS(=O)(=O)c2ccccc2)c1` yielded an IC50 of 3400 nM. `Cc1ccc(-c2ccc(O)c(C(=O)O)c2)cc1C` showed an IC50 of 6200 nM. `Cc1ccc(-c2ccc(C(=O)O)c(NS(=O)(=O)c3ccc(NC(=O)NCC(C)C)cc3)c2)c2ccccc12` gave an IC50 of 150 nM. For `O=C(O)c1cc(-c2ccccc2COc2cccc(C(F)(F)F)c2)ccc1O`, the IC50 was 670 nM.

— ChEMBL document CHEMBL3124895, “Fragment-based discovery of potent inhibitors of the anti-apoptotic MCL-1 protein” (Bioorg Med Chem Lett, 2014)
